# Tested on: 3D neural constructs
# Format: cell-based, human
# Method: For toxicity screening experiments, cells were seeded as described above (Examples 1 and 2), but with 65,000 cells/well for ECs+MSCs (also 5:1 ratio) and 15,000 cells/well for microglia/macrophage precursors. Neural constructs were treated with non-toxic or toxic compounds starting at day 14, with media exchanged every 2 days. The following screening protocol was developed by the Thomson lab. Toxic chemicals (FIG. 10E) were chosen based on previous literature support for neurotoxicity (Adams et al., Neurotoxicol Teratol 15(3):193-202 (1993); Cooper et al., Science 280(5369):1603-1607 (1998); Crofton et al., ALTEX-Altern Anim Exp 28(1):9-15 (2011); Eskes et al. (2003); Grandjean et al., Lancet Neurol. 13:330 (2014); Lidsky (2003); Radio et al., Neurotoxicol Teratol 32(1):25-35 (2010); Zurich (2002)). […]
# After reverse transcription, RNA is removed by RNaseA and RNaseH treatment. […] The indexed cDNA libraries were pooled and sequenced on an Illumina HiSeq2500 with a single 51 bp read and a 10 bp index read.
# RSEM expected read counts for each gene were determined by median normalization (utilizing the median normalization function within EB Seq—version 1.5.3) (Leng et al., Bioinformatics 29(8):1035-1043 (2013)). […]
compound,measurement,setting,value
CCCCCCCC/C=C\CCCCCCCC(=O)O [oleic acid],SVM prediction as toxic or non-toxic (control),,neurotoxin
same,SVM probability of being toxic (ranking of blinded compounds),human,"higher probability of being toxic than L-741,626 and Ouabain"
